Data published in ChEMBL document CHEMBL3885881, “DrugMatrix”.

Species on record: Rattus norvegicus
Assay: DrugMatrix - Regimen: Daily Repeat
Type: toxicity, organism-based, Sprague-Dawley
Set-up: regimen Daily Repeat, gender Male, age 6-8 weeks
Conditions: in vivo, po, route oral GAVAGE, vehicle 100 % WATER; for ABSOLUTE BASOPHIL / ABSOLUTE EOSINOPHIL / ABSOLUTE LYMPHOCYTE / ABSOLUTE MONOCYTE / ABSOLUTE SEGMENTED NEUTROPHIL / BASOPHIL / EOSINOPHIL / ERYTHROCYTE COUNT / HEMATOCRIT / HEMOGLOBIN / LEUKOCYTE COUNT / LYMPHOCYTE / MEAN CORPUSCULAR HEMOGLOBIN / MEAN CORPUSCULAR HEMOGLOBIN CONCENTRATION / MEAN CORPUSCULAR VOLUME / MONOCYTE / NEUTROPHIL / NUCLEATED RED BLOOD CELLS / PLATELET COUNT: tissue Blood; for ALANINE AMINOTRANSFERASE / ALBUMIN / ALKALINE PHOSPHATASE / ASPARTATE AMINOTRANSFERASE / BLOOD UREA NITROGEN / CARBON DIOXIDE / CHLORIDE / CHOLESTEROL / CREATINE PHOSPHOKINASE / CREATININE / GLUCOSE / LACTATE DEHYDROGENASE / LIPASE / PHOSPHORUS / POTASSIUM / SODIUM / TOTAL BILIRUBIN / TOTAL PROTEIN / URIC ACID: tissue Plasma
[1] = 160 mg/kg, 120 h, dose level Low, time 5 day
[2] = 1000 mg/kg, 72 h, dose level High, time 3 day
[3] = 1000 mg/kg, 120 h, dose level High, time 5 day

## N[C@@H](Cc1ccc(O)c(O)c1)C(=O)O [LEVODOPA]
[1]
  ABSOLUTE BASOPHIL: 0 CELLS/uL
  ABSOLUTE EOSINOPHIL: 0 CELLS/uL
  ABSOLUTE LYMPHOCYTE: 7319.33 CELLS/uL
  ABSOLUTE MONOCYTE: 56 CELLS/uL
  ABSOLUTE SEGMENTED NEUTROPHIL: 1058 CELLS/uL
  BASOPHIL: 0%
  EOSINOPHIL: 0%
  ERYTHROCYTE COUNT: 5.23 x10E6/uL
  HEMATOCRIT: 34.27%
  HEMOGLOBIN: 13 G/DL
  LEUKOCYTE COUNT: 8.43 x10E3/uL
  LYMPHOCYTE: 87.67%
  MEAN CORPUSCULAR HEMOGLOBIN: 25.13 pg
  MEAN CORPUSCULAR HEMOGLOBIN CONCENTRATION: 38 G/DL
  MEAN CORPUSCULAR VOLUME: 66.13 fL
  MONOCYTE: 0.67%
  NEUTROPHIL: 11.67%
  NUCLEATED RED BLOOD CELLS: 0 /100WBC
  PLATELET COUNT: 1259.67 x10E3/uL
  ALANINE AMINOTRANSFERASE: 48 u/L
  ALBUMIN: 4.1 G/DL
  ALKALINE PHOSPHATASE: 360.33 u/L
  ASPARTATE AMINOTRANSFERASE: 84.33 u/L
  BLOOD UREA NITROGEN: 16 mg/dL
  CARBON DIOXIDE: 30.33 mmol/L
  CHLORIDE: 103 MEQ/L
  CHOLESTEROL: 58 mg/dL
  CREATINE PHOSPHOKINASE: 286.33 u/L
  CREATININE: 0.17 mg/dL
  GLUCOSE: 137 mg/dL
  LACTATE DEHYDROGENASE: 128 u/L
  LIPASE: 10 u/L
  PHOSPHORUS: 10.63 mg/dL
  POTASSIUM: 6.08 MEQ/L
  SODIUM: 145.37 MEQ/L
  TOTAL BILIRUBIN: 0.17 mg/dL
  TOTAL PROTEIN: 5.97 G/DL
  URIC ACID: 1.03 mg/dL
[2]
  ABSOLUTE BASOPHIL: 0 CELLS/uL
  ABSOLUTE EOSINOPHIL: 0 CELLS/uL
  ABSOLUTE LYMPHOCYTE: 14031 CELLS/uL
  ABSOLUTE MONOCYTE: 188.67 CELLS/uL
  ABSOLUTE SEGMENTED NEUTROPHIL: 780.33 CELLS/uL
  BASOPHIL: 0%
  EOSINOPHIL: 0%
  ERYTHROCYTE COUNT: 5.75 x10E6/uL
  HEMATOCRIT: 36.23%
  HEMOGLOBIN: 13.9 G/DL
  LEUKOCYTE COUNT: 15 x10E3/uL
  LYMPHOCYTE: 93.33%
  MEAN CORPUSCULAR HEMOGLOBIN: 24.2 pg
  MEAN CORPUSCULAR HEMOGLOBIN CONCENTRATION: 38.37 G/DL
  MEAN CORPUSCULAR VOLUME: 63 fL
  MONOCYTE: 1%
  NEUTROPHIL: 5.67%
  NUCLEATED RED BLOOD CELLS: 0.33 /100WBC
  PLATELET COUNT: 1320 x10E3/uL
  ALANINE AMINOTRANSFERASE: 57.33 u/L
  ALBUMIN: 4.13 G/DL
  ALKALINE PHOSPHATASE: 415 u/L
  ASPARTATE AMINOTRANSFERASE: 88 u/L
  BLOOD UREA NITROGEN: 14 mg/dL
  CARBON DIOXIDE: 32 mmol/L
  CHLORIDE: 101.67 MEQ/L
  CHOLESTEROL: 54.33 mg/dL
  CREATINE PHOSPHOKINASE: 336.67 u/L
  CREATININE: 0.2 mg/dL
  GLUCOSE: 120 mg/dL
  LACTATE DEHYDROGENASE: 167.33 u/L
  LIPASE: 10.33 u/L
  PHOSPHORUS: 11 mg/dL
  POTASSIUM: 6.09 MEQ/L
  SODIUM: 145.53 MEQ/L
  TOTAL BILIRUBIN: 0.17 mg/dL
  TOTAL PROTEIN: 6.07 G/DL
  URIC ACID: 0.8 mg/dL
[3]
  ABSOLUTE BASOPHIL: 0 CELLS/uL
  ABSOLUTE EOSINOPHIL: 0 CELLS/uL
  ABSOLUTE LYMPHOCYTE: 11289.33 CELLS/uL
  ABSOLUTE MONOCYTE: 104.67 CELLS/uL
  ABSOLUTE SEGMENTED NEUTROPHIL: 539.33 CELLS/uL
  BASOPHIL: 0%
  EOSINOPHIL: 0%
  ERYTHROCYTE COUNT: 6.06 x10E6/uL
  HEMATOCRIT: 37.27%
  HEMOGLOBIN: 14.47 G/DL
  LEUKOCYTE COUNT: 11.93 x10E3/uL
  LYMPHOCYTE: 95.33%
  MEAN CORPUSCULAR HEMOGLOBIN: 23.87 pg
  MEAN CORPUSCULAR HEMOGLOBIN CONCENTRATION: 38.83 G/DL
  MEAN CORPUSCULAR VOLUME: 61.43 fL
  MONOCYTE: 0.67%
  NEUTROPHIL: 4%
  NUCLEATED RED BLOOD CELLS: 0 /100WBC
  PLATELET COUNT: 1582 x10E3/uL
  ALANINE AMINOTRANSFERASE: 46.33 u/L
  ALBUMIN: 4.17 G/DL
  ALKALINE PHOSPHATASE: 308.33 u/L
  ASPARTATE AMINOTRANSFERASE: 68 u/L
  BLOOD UREA NITROGEN: 20.33 mg/dL
  CARBON DIOXIDE: 33.67 mmol/L
  CHLORIDE: 101.67 MEQ/L
  CHOLESTEROL: 59.33 mg/dL
  CREATINE PHOSPHOKINASE: 271.67 u/L
  CREATININE: 0.21 mg/dL
  GLUCOSE: 124 mg/dL
  LACTATE DEHYDROGENASE: 116.67 u/L
  LIPASE: 10 u/L
  PHOSPHORUS: 10.37 mg/dL
  POTASSIUM: 6.24 MEQ/L
  SODIUM: 147.43 MEQ/L
  TOTAL BILIRUBIN: 0.17 mg/dL
  TOTAL PROTEIN: 6.13 G/DL
  URIC ACID: 1.2 mg/dL
